From patent publication EP4800015A1, “AZABICYCLO DERIVATIVE AND PREPARATION METHOD THEREFOR, AND USE” (Zhejiang Hisun Pharmaceutical Co., Ltd., priority 2023, dated 2025)
Like-named read-outs stand apart in the source and are kept apart here.

Assays:
recombinant human WRN = target: T1, recombinant human WRN (Homo sapiens, UniProt Q14191); experiment: Inhibition of WRN enzyme activity (ATPase), ADP-Glo Kinase Assay; type: biochemical; conditions: WRN protein 5 nM, Flap 0.1 nM, ATP 30 µM
T1 construct: purchased BPS 101264
How it was run: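 Recombinant human WRN (5 nM) was preincubated with compound (1000–0.004 nM) for 15 min at room temperature. Flap26 5'-flap DNA (0.1 nM) and 30 µM ATP were then added for 10 min in Tris pH 7.5, MgCl2, NaCl, BSA, Pluronic buffer. ADP was detected by ADP-Glo luminescence, and IC50 was obtained by nonlinear regression versus a 0.1% DMSO control.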

RL95-2 cells = experiment: Inhibition of RL95-2 cell proliferation (CellTiter-Glo); type: cell-based; conditions: Homo sapiens; RL95-2 cells (MSI-H), 120 hours
Description: The following method was used to determine the effect of the compounds of the present disclosure on RL95-2 cell proliferation. RL95-2 cells (MSI-H cells) were purchased from Cell Resource Center of Shanghai Institutes for Biological Sciences, Chinese Academy of Sciences, and cultured in DMEM/F12 medium (Gibco, catalog No. A4192001) containing 10% fetal bovine serum, 100 U penicillin, and 100 µg/mL streptomycin. Cell viability was determined by CellTiter-Glo® Luminescent Cell Viability Assay kit (Promega, catalog No. G7573).
The experiment was performed according to the steps of the kit manual, which is briefly described as follows: test compounds were first dissolved in DMSO to prepare 10 mM stock solutions, and then diluted with medium to prepare test samples, with final compound concentrations ranging from 10000 nM to 1.52 nM. Cells in logarithmic growth phase were seeded into 96-well cell culture plates at a density of 500 cells per well and cultured overnight at 37 °C in a 5% CO2 incubator, and then test compounds were added and cultivation continued for 120 hours. After the cultivation was completed, 50 µL of CellTiter-Glo detection reagent was added to each well, shaken for 5 minutes, and then left to stand for 10 minutes. Luminescence values of each well were read on a microplate reader using Luminescence mode. The percentage inhibition at each concentration point was calculated by comparison with the control group (0.1% DMSO), and then IC50 values for the compounds for inhibition of cell proliferation were obtained using nonlinear regression analysis of compound concentration logarithm versus inhibition rate in GraphPad Prism 9 software, as shown in Table 3.
The IC50 value results of the compounds of the present disclosure are represented by A, wherein "A" indicates 1 nM < IC50 ≤ 100 nM. Table 3 IC50 data for inhibition of RL95-2 cell proliferation by the compounds of the present disclosure

T1 sequence (Q14191 whole entry): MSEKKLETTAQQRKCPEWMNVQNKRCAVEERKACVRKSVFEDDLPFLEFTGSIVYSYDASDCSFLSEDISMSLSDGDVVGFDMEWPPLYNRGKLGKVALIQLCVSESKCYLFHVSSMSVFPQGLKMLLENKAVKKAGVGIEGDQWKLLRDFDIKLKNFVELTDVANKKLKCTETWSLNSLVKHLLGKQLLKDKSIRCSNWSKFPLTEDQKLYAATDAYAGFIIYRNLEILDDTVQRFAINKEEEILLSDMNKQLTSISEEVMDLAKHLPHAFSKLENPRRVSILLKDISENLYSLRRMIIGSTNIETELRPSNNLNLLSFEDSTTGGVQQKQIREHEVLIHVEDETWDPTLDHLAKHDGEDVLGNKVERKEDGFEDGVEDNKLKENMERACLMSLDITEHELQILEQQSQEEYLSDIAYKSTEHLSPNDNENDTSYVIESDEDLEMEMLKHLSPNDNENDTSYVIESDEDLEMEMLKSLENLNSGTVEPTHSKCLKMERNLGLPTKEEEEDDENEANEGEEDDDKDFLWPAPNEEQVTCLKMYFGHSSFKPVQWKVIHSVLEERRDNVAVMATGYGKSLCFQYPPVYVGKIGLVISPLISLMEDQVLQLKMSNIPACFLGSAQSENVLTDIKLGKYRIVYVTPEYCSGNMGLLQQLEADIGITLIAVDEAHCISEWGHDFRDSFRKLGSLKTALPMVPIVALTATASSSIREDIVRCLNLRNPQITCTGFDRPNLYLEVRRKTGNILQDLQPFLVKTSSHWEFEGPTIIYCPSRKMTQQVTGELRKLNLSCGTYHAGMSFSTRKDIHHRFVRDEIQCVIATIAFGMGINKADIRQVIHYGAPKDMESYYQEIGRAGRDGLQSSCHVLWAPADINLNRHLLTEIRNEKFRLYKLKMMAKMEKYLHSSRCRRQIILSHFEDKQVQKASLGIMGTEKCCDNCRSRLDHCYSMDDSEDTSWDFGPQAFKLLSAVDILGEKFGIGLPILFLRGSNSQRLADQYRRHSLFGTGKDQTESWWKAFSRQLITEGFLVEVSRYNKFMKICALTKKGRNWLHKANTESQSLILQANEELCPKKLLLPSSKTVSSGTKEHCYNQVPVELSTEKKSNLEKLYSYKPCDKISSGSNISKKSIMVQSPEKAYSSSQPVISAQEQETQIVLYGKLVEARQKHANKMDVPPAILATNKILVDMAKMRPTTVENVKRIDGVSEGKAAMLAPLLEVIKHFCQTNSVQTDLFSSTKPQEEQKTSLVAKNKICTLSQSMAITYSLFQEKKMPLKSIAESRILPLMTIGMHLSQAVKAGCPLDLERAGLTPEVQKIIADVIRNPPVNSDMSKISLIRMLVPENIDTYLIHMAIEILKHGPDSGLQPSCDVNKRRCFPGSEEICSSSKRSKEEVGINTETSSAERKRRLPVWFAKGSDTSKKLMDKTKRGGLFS

IC50 (recombinant human WRN; read-out: IC50)	Compound	IC50 (RL95-2 cells)	IC50 (recombinant human WRN)
1 to 100 nM	CCc1c(N2CCN(C(=O)c3ncnc(C)c3O)CC2)c(=O)n2nc(C3=CCCCOC3)nc2n1CC(=O)Nc1ccc(C(F)(F)F)cc1Cl [Example 62, N-(2-chloro-4-(trifluoromethyl)phenyl)-2-(5-ethyl-6-(4-(5-hydroxy-6-methylpyrimidine-4-carbonyl)piperazin-1-yl)-7-oxo-2-(2,5,6,7-tetrahydrooxepin-3-yl)-[1,2,4]triazolo[1,5-a]pyrimidin-4(7H) -yl)acetamide]	1 to 100 nM	
1 to 100 nM	CCc1c(N2CCN(C(=O)c3ncnc(C)c3O)CC2)c(=O)n2nc(C3=CCCCOC3)nc2n1CC(=O)Nc1ccc(S(F)(F)(F)(F)F)cc1 [Example 63, 2-(5-ethyl-6-(4-(5-hydroxy-6-methylpyrimidine-4-carbonyl)piperazin-1-yl)-7-oxo-2-(2,5,6,7-tetra hydrooxepin-3-yl)-[1,2,4]triazolo[1,5-a]pyrimidin-4(7H)-yl)-N-(4-(pentafluoro-λ^6-sulfaneyl)phenyl)acetamide]	1 to 100 nM	
1 to 100 nM	CCc1c(N2CCN(C(=O)c3ncnc(C)c3O)CC2)c(=O)n2nc(C3=CCC4(CC3)COC4)nc2n1CC(=O)Nc1ccc(C(F)(F)F)cc1Cl [Example 65, N-(2-chloro-4-(trifluoromethyl)phenyl)-2-(5-ethyl-6-(4-(5-hydroxy-6-methylpyrimidine-4-carbonyl)piperazin-1-yl)-7-oxo-2-(2-oxaspiro[3.5]non-6-en-7-yl)-[1,2,4]triazolo[1,5-a]pyrimidin-4(7H)-yl)acetamide]	1 to 100 nM	
< 1 nM	CCc1c(N2CCN(C(=O)c3ncnc(C)c3O)CC2)c(=O)n2nc(C3=CC4CC4C3)nc2n1CC(=O)Nc1ccc(S(F)(F)(F)(F)F)cc1 (stereo not shown) [Example 66, 2-(2-(Bicyclo[3.1.0]hex-2-en-3-yl)-5-ethyl-6-(4-(5-hydroxy-6-methylpyrimidine-4-carbonyl)piperazin-1-yl)-7-oxo-[1,2,4]triazolo[1,5-a]pyrimidin-4(7H)-yl)-N-(4-(pentafluoro-λ^6-thiol)phenyl)acetamide]	1 to 100 nM	
< 1 nM	CCc1c(N2CCN(C(=O)c3ncnc(C)c3O)CC2)c(=O)n2nc(-c3cccc4ccoc34)nc2n1CC(=O)Nc1ccc(C(F)(F)F)cc1Cl [Example 69, 2-(2-(benzofuran-7-yl)-5-ethyl-6-(4-(5-hydroxy-6-methylpyrimidine-4-carbonyl)piperazin-1-yl)-7-oxo-[1,2,4]triazolo[1,5-a]pyrimidin-4(7H)-yl)-N-(2-chloro-4-(trifluoromethyl)phenyl)acetamide]	1 to 100 nM	
1 to 100 nM	CCc1c(N2CCN(C(=O)c3ncnc(C)c3O)CC2)c(=O)n2nc(C3=CCCCCC3)nc2n1CC(=O)Nc1ccc(S(F)(F)(F)(F)F)cc1Cl [Example 70, N-(2-chloro-4-(pentafluoro-λ^6-sulfaneyl)phenyl)-2-(2-(cyclohept-1-en-1-yl)-5-ethyl-6-(4-(5-hydroxy-6-methylpyrimidine-4-carbonyl)piperazin-1-yl)-7-oxo-[1,2,4]triazolo[1,5-a]pyrimidin-4(7H) -yl)acetamide]	1 to 100 nM	
< 1 nM	CCc1c(N2CCN(C(=O)c3ncccc3O)CC2)c(=O)n2nc(C3=CC4CC(=O)CC4C3)nc2n1CC(=O)Nc1ccc(S(F)(F)(F)(F)F)cc1 (stereo not shown) [Example 71, 2-(5-ethyl-6-(4-(3-hydroxypicolinoyl)piperazin-1-yl)-7-oxo-2-(5-oxo-1,3a,4,5,6,6a-hexahydropentalen-2-yl)-[1,2,4]triazolo[1,5-a]pyrimidin-4(7H)-yl)-N-(4-(pentafluoro-λ^6-sulfaneyl)phenyl)acetamide]	1 to 100 nM	
1 to 100 nM	CCc1c(N2CCN(C(=O)c3ncnc(C)c3O)CC2)c(=O)n2nc(-c3cc4ccccc4[nH]3)nc2n1CC(=O)Nc1ccc(C(F)(F)F)cc1Cl [Example 73, N-(2-Chloro-4-(trifluoromethyl)phenyl)-2-(5-ethyl-6-(4-(5-hydroxy-6-methylpyrimidine-4-carbonyl)piperazin-1-yl)-2-(1H-indol-2-yl)-7-oxo-[1,2,4]triazolo[1,5-a]pyrimidin-4(7H)-yl)acetamide]	1 to 100 nM	
1 to 100 nM	CCc1c(N2CCN(C(=O)c3ncnc(C)c3O)CC2)c(=O)n2nc(-c3cc4ccccc4n3C)nc2n1CC(=O)Nc1ccc(C(F)(F)F)cc1Cl [Example 74, N-(2-chloro-4-(trifluoromethyl)phenyl)-2-(5-ethyl-6-(4-(5-hydroxy-6-methylpyrimidine-4-carbonyl)piperazin-1-yl)-2-(1-methyl-1H-indol-2-yl)-7-oxo-[1,2,4]triazolo[1,5-a]pyrimidin-4(7H)-yl)ac etamide]	1 to 100 nM	
1 to 100 nM	CCc1c(N2CCN(C(=O)c3ncnc(C)c3O)CC2)c(=O)n2nc(-c3ccc4ccoc4c3)nc2n1CC(=O)Nc1ccc(S(F)(F)(F)(F)F)cc1 [Example 77, 2-(2-(benzofuran-6-yl)-5-ethyl-6-(4-(5-hydroxy-6-methylpyrimidine-4-carbonyl)piperazin-1-yl)-7-oxo-[1,2,4]triazolo[1,5-a]pyrimidin-4(7H)-yl)-N-(4-(pentafluoro-λ^6-sulfaneyl)phenyl)acetamide]	1 to 100 nM	
1 to 100 nM	CCc1c(N2CCN(C(=O)c3ncnc(C)c3O)CC2)c(=O)n2nc(-c3ccc4c(c3)CCO4)nc2n1CC(=O)Nc1ccc(SC(F)(F)F)cc1F [Example 89, 2-(2-(2,3-Dihydrobenzofuran-5-yl)-5-ethyl-6-(4-(5-hydroxy-6-methylpyrimidine-4-carbonyl)piperazin-1-yl)-7-oxo-[1,2,4]triazolo[1,5-a]pyrimidin-4(7H)-yl)-N-(2-fluoro-4-((trifluoromethyl)thio)phenyl)acetamide]	1 to 100 nM	
1 to 100 nM	Cc1ncnc(C(=O)N2CCN(c3c(C4CC4)n(CC(=O)Nc4ccc(C(F)(F)F)cc4Cl)c4nc(-c5ccc6c(c5)CCO6)nn4c3=O)CC2)c1O [Example 152, N-(2-chloro-4-(trifluoromethyl)phenyl)-2-(5-cyclopropyl-2-(2,3-dihydrobenzofuran-5-yl)-6-(4-(5-hydroxy-6-methylpyrimidine-4-carbonyl)piperazin-1-yl)-7-oxo-[1,2,4]triazolo[1,5-a]pyrimidin-4 (7H)-yl)acetamide]	1 to 100 nM	
1 to 100 nM	CCO/C=C/c1nc2n(CC(=O)Nc3ccc(C(F)(F)F)cc3Cl)c(CC)c(N3CCN(C(=O)c4ncnc(C)c4O)CC3)c(=O)n2n1 [Example 193, (E)-N-(2-chloro-4-(trifluoromethyl)phenyl)-2-(2-(2-ethoxyvinyl)-5-ethyl-6-(4-(5-hydroxy-6-methylpyrimidine-4-carbonyl)piperazin-1-yl)-7-oxo-[1,2,4]triazolo[1,5-a]pyrimidin-4(7H)-yl)acetamide]		
1 to 100 nM	CCc1c(N2CCN(C(=O)c3ncnc(C)c3O)CC2)c(=O)n2nc(/C=C/C(=O)N3CCC3)nc2n1CC(=O)Nc1ccc(C(F)(F)F)cc1Cl [Example 194, (E)-2-(2-(3-(azetidin-1-yl)-3-oxoprop-1-en-1-yl)-5-ethyl-6-(4-(5-hydroxy-6-methylpyrimidine-4-carbonyl)piperazin-1-yl)-7-oxo-[1,2,4]triazolo[1,5-a]pyrimidin-4(7H)-yl)-N-(2-chloro-4-(trifluor omethyl)phenyl)acetamide]		
1 to 100 nM	CCc1c(N2CCN(C(=O)c3ncnc(C)c3O)CC2)c(=O)n2nc(C3=C[C@@H]4C[C@@H]4C3)nc2n1CC(=O)Nc1ccc(S(F)(F)(F)(F)F)cc1 [Example 195, 2-(2-((1R,5R)-bicyclo[3.1.0]hex-2-en-3-yl)-5-ethyl-6-(4-(5-hydroxy-6-methylpyrimidine-4-carbonyl)piperazin-1-yl)-7-oxo-[1,2,4]triazolo[1,5-a]pyrimidin-4(7H)-yl)-N-(4-(pentafluoro-λ6-sulfaneyl)phenyl)acetamide]		
	CCc1c(N2CCN(C(=O)c3ncnc(C)c3O)CC2)c(=O)n2nc(C3=C[C@H]4C[C@H]4C3)nc2n1CC(=O)Nc1ccc(S(F)(F)(F)(F)F)cc1 [Example 196, 2-(2-((1S,5S)-bicyclo[3.1.0]hex-2-en-3-yl)-5-ethyl-6-(4-(5-hydroxy-6-methylpyrimidine-4-carbonyl)piperazin-1-yl)-7-oxo-[1,2,4]triazolo[1,5-a]pyrimidin-4(7H)-yl)-N-(4-(pentafluoro-λ6-sulfaneyl)phenyl)acetamide]		1 to 100 nM
